According to patent US7157079B2, “Combined tumor suppressor gene therapy and chemotherapy in the treatment of neoplasms” (priority 1997, dated 2007):

What was measured:
MDA-MB-231 tumors = experiment: Tumor growth with adenovirus in the absence or presence of low dose dexamethasone; conditions: s.c. pellet releasing 83.3 μg dexamethasone/day
Description: To investigate whether the immunosuppressant properties of low dose Dexamethasone (Dex) can inhibit the anti-adenovirus immune response (e.g., NK cell response) MDA-MB-231 tumors in scid mice were treated with recombinant virus of the invention in the absence and in the presence of dexamethasone.
Approximately 5×10^6 MDA-MB-231 cells/mouse were injected into the mammary fat pads of female scid mice on day 0. On day 11, dexamethasone or placebo pellets were implanted subcutaneously. The 5 mg pellets were designed to release 83.3 μg dexamethasone/day continuously for 60 days (Innovative Research of America, Sarasota, Fla.). All mice received a total of 10 peritumoral injections given once a day on days 14–18 and 21–25 (0.1 ml per injection).

[1] = system: SK-OV-3 ovarian tumor cells; experiment: MTT cell death assay, p53 adenovirus combined with anti-cancer drug; type: cell-based, human; conditions: FIG. 1, TAXOL 0.001-20 μg/ml, p53 Ad 0.5-50 m.o.i., MTT on day 3
Description: In treatment three, the cells were contacted simultaneously with both the TAXOL® and the p53 adenovirus. Thus, the p53 Ad and TAXOL® can be administered within the same twenty four (24) hour period or concurrently.
Approximately 1.5×10^4 cells in culture medium (head and neck cell lines SCC-9, SCC-15, and SCC-25 in 1:1 mix of DMEM+ Ham's F12 media with 0;4 μg/ml cortisol and 10% FBS and 1% non-essential amino acids, prostate DU-145 and Ovarian SK-OV-3 in Eagles essential medium plus 10% FBS) were added to each well on a 96 well microtitre plate and cultured for about 4 hours at 37° C. and 5% CO2.
Cell death was then quantitated according to the method of Mosmann (1983) J. Immunol. Meth., 65: 55–63.
Dosing was performed as described above. Cell death was quantitated on day 3 using the MTT assay as described above. In addition, a dose response curve for p53 Ad alone (using the doses listed in Table 2) was generated (after […] cell exposure to the drug) and a dose response curve for TAXOL® alone was performed using the doses listed above (3 day cell exposure to the drug).
All cell lines were obtained from ATCC (Rockville, Md.). […]

[2] = system: MRC-9 diploid fibroblast cells; experiment: 3H-thymidine incorporation growth assay in normal cells; type: cell-based; conditions: MRC-9 vs tumor cells; FIG. 9
Description: In a second experiment, the efficacy of treatment of normal cells (MRC-9 cells) was compared with tumor cells (FIG. 9). In this experiment, growth was assayed as ^3H-thymidine incorporation rather than the MTT assay. […] As would be expected, the effect of tumor suppressor alone was negligible in normal cells and highly significant in tumor cells.

[3] = system: intraperitoneal SK-OV-3 tumors; experiment: SK-OV-3 ovarian tumor model, cisplatin efficacy; type: in vivo, scid mice; conditions: day 20
Description: There were normally ten mice per group.
Established intraperitoneal SK-OV-3 tumors were treated with intraperitoneal doses of vehicles, p53 Ad, cisplatin, or both drugs. Mice were given six injections of p53 Ad over a period of two weeks. The total virus dose was 1.5×10^9 C.I.U. (3.1×10^10 viral particles).
Cisplatin efficacy: Female scid mice were injected with 5×10^6 SK-OV-3 ovarian tumor cells, I.P., on day 0. Mice were dosed I.P. on days 6, 8, 10, 13, 15, and 17 (p53 Ad only on D17). Mice received 0.2 ml total volume (0.1 ml cisplatin vehicle or cisplatin plus 0.1 ml Ad buffer or p53 Ad). The p53 Ad dose was 2.5×10^8 C.I.U./mouse/day (5.2×10^9 viral particles). The cisplatin dose was 2 mg/kg/day. Tumors were harvested and weighed on day 20.

| Compound | effect of anti-cancer chemotherapeutic alone, normal vs cancer cells [2] | further results |
| --- | --- | --- |
| C[C@@H]1C[C@H]2[C@@H]3CCC4=CC(=O)C=C[C@]4(C)[C@@]3(F)[C@@H](O)C[C@]2(C)[C@@]1(O)C(=O)CO [dexamethasone] | – | adverse side effects (MDA-MB-231 tumors): No adverse side effects; effect on the growth rate of tumors (MDA-MB-231 tumors): no significant effect |
| CC(=O)O[C@H]1C(=O)[C@@]2(C)[C@H]([C@H](OC(=O)c3ccccc3)[C@]3(O)C[C@H](OC(=O)[C@H](O)[C@@H](NC(=O)c4ccccc4)c4ccccc4)C(C)=C1C3(C)C)[C@]1(OC(C)=O)CO[C@@H]1C[C@@H]2O [TAXOL ®, paclitaxel] | – | inhibition of cell proliferation (as compared to the buffer control) [1]: decreased the rate of cell proliferation |
| N.N.[Cl][Pt][Cl] [cisplatin] | more effective in normal cells than cancer cells | bloody ascites and invasive tumor nodules in the diaphragm muscle [3]: absent |
| COc1cccc2c1C(=O)c1c(O)c3c(c(O)c1C2=O)C[C@@](O)(C(=O)CO)C[C@@H]3O[C@H]1C[C@H](N)[C@H](O)[C@H](C)O1 [doxorubicin] | more effective in normal cells than cancer cells | – |
| O=c1[nH]cc(F)c(=O)[nH]1 [5-FU, 5-fluorouracil] | more effective in normal cells than cancer cells | – |
| COc1cc([C@@H]2c3cc4c(cc3[C@@H](O[C@@H]3O[C@@H]5CO[C@@H](C)O[C@H]5[C@H](O)[C@H]3O)[C@H]3COC(=O)[C@H]23)OCO4)cc(OC)c1O [etoposide] | more effective in normal cells than cancer cells | – |
| CN(Cc1cnc2nc(N)nc(N)c2n1)c1ccc(C(=O)N[C@@H](CCC(=O)O)C(=O)O)cc1 [methotrexate] | more effective in normal cells than cancer cells | – |
